Measured values published in US8686146B2, “Azaindenoisoquinoline topoisomerase I inhibitors” (Purdue Research Foundation, priority 2012, dated 2014).
Where a name gives a salt, the structure may show the parent alone. Read-outs that look alike come from different tables or passages of the source.

Tests used:
human recombinant Top1 = target: T1, human recombinant Top1 (Homo sapiens, UniProt P11387); test: Top1-mediated DNA cleavage assay; assay type: biochemical; details: semiquantitative, relative to compounds 1 and 2
T1 construct: made in house
T1 sequence (P11387 1-765): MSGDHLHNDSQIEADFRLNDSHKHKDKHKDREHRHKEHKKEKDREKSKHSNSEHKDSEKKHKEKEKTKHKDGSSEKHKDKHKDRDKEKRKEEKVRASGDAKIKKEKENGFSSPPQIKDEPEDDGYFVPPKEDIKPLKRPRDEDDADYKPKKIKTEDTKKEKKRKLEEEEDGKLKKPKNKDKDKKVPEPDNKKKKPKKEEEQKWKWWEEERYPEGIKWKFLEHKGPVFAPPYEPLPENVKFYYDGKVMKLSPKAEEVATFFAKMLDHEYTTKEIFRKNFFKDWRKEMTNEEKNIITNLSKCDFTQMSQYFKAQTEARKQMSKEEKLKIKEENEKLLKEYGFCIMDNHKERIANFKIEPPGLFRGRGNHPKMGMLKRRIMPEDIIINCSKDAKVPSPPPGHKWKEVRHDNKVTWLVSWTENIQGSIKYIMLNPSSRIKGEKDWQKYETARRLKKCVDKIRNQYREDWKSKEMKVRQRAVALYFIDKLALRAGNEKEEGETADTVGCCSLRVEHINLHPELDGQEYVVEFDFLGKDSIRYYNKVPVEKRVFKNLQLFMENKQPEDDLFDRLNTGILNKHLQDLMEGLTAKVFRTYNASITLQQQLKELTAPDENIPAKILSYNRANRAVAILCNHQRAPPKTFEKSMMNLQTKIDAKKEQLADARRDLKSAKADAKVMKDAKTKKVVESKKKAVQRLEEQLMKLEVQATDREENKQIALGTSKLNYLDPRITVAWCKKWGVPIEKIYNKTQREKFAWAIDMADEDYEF
Experimental: Unincorporated [^32P]dGTP was removed using mini Quick […] columns (Roche, Indianapolis, Ind.), and the eluate containing the […] DNA substrate was collected. […] Aliquots of each reaction mixture were subjected to 20% denaturing PAGE. […] The DNA fragments were separated on a denaturing gel. […] All of the target compounds were tested for induction of DNA damage in Top1-mediated DNA cleavage assays, as described above.

[1] = tested on: approximately 60 different human cancer cell lines; test: NCI screen, mean graph midpoint over all cell lines; assay type: cell-based; details: all human cancer cell lines successfully tested, 48 h
Experimental: (§1) Cells of approximately 60 different human cancer cell lines were incubated for 48 h with five 10-fold dilutions of the tested compounds starting from 100 μM and then treated with sulforhodamine B dye. The ratios of recorded optical densities relative to that of the control were plotted as a function of the common logarithm of the tested compound concentrations. […] The GI50 and the mean graph midpoint (MGM) values of the prepared indenoisoquinolines in selected cell lines are presented in Table I.
(§2) The antiproliferative activity of each compound was determined in the National Cancer Institute (NCI) screen as described above. Cells of approximately 60 different human cancer cell lines were incubated for 48 h with five 10-fold dilutions of the test compounds starting from 100 μM, and then treated with sulforhodamine B dye. The ratios of recorded optical densities relative to those of the control were plotted as a function of the common logarithm of the tested compound concentrations. […] The GI50 and the mean graph midpoint (MGM) values of the prepared (aza)indeno-isoquinolines in selected cell lines are presented in Table 2.

HOP-62 = test: NCI screen antiproliferative activity, lung HOP-62; details: Homo sapiens, HOP-62, 48 h, read-out: cytotoxicity (GI50) lung HOP-62, 48 h, sulforhodamine B, single determination
Experimental: as §1, §2

HCT-116 = test: NCI screen antiproliferative activity, colon HCT-116; details: Homo sapiens, HCT-116, 48 h, read-out: cytotoxicity (GI50) colon HCT-116, 48 h, sulforhodamine B, single determination
Experimental: as §1, §2

UACC-62 = test: NCI screen antiproliferative activity, melanoma UACC-62; details: Homo sapiens, UACC-62, 48 h, read-out: cytotoxicity (GI50) melanoma UACC-62, 48 h, sulforhodamine B, single determination
Experimental: as §1, §2

OVCAR-3 = test: NCI screen antiproliferative activity, ovarian OVCAR-3; details: Homo sapiens, OVCAR-3, 48 h, read-out: cytotoxicity (GI50) ovarian OVCAR-3, 48 h, sulforhodamine B, single determination; Table 1
Experimental: as §1, §2

SN12C = test: NCI screen antiproliferative activity, renal SN12C; details: Homo sapiens, SN12C, 48 h, read-out: cytotoxicity (GI50) renal SN12C, 48 h, sulforhodamine B, single determination
Experimental: as §1, §2

DU-145 = test: NCI screen antiproliferative activity, prostate DU-145; details: Homo sapiens, DU-145, 48 h, read-out: cytotoxicity (GI50) prostate DU-145, 48 h, sulforhodamine B, single determination
Experimental: as §1, §2

MCF7 = test: NCI screen antiproliferative activity, breast MCF7; details: Homo sapiens, MCF7, 48 h, read-out: cytotoxicity (GI50) breast MCF7, 48 h, sulforhodamine B, single determination
Experimental: as §1, §2

SF-539 = test: NCI screen antiproliferative activity, CNS SF-539; details: Homo sapiens, 48 h, read-out: cytotoxicity (GI50) CNS SF-539, 48 h, sulforhodamine B, single determination; Table 2
Experimental: as §1, §2

Row | Top1 Cleavage (human recombinant Top1; Table 1) | SMILES | Top1 Cleavage (human recombinant Top1; Table 2) | MGM (mean graph midpoint for growth inhibition) ([1]; Table 1) | GI50 (HOP-62; Table 1) | GI50 (HCT-116; Table 1) | GI50 (UACC-62; Table 1) | GI50 (SN12C; Table 1) | GI50 (DU-145; Table 1) | GI50 (MCF7; Table 1) | other results
1 | – | COc1cc2c3c(n(CCCN(C)C)c(=O)c2cc1OC)-c1cnccc1C3=O.O=C(O)C(F)(F)F [Compound 117, 8-Aza-5,6-dihydro-6-(3-dimethylaminopropyl)-2,3-dimethoxy-5,11-dioxo-11H-indeno[1,2-c]isoquinoline Trifluoroacetate] | ++ | – | – | – | – | – | – | – | –
2 | +++ | CN(C)CCCn1c2c(c3ccccc3c1=O)C(=O)c1cccnc1-2 [Compound 18, 7-Aza-5,6-dihydro-6-(3-dimethylaminopropyl)-5,11-dioxo-11H-indeno[1,2-c]-isoquinoline Hydrochloride] | – | 1.78 µM | 1510 nM | 410 nM | 2690 nM | 810 nM | 1350 nM | 250 nM | GI50 (OVCAR-3): 2570 nM
3 | – | COc1cc2c3c(n(CCCN(C)C)c(=O)c2cc1OC)-c1cccnc1C3=O.O=C(O)C(F)(F)F [Compound 37, 10-Aza-5,6-dihydro-6-(3-dimethylaminopropyl)-2,3-dimethoxy-5,11-dioxo-11H-indeno[1,2-c]isoquinoline Trifluoroacetate] | ++ | – | – | – | – | – | – | – | –
4 | – | COc1ccc2c(n1)C(=O)c1c-2n(CCCN2CCOCC2)c(=O)c2cc(OC)c(OC)cc12.O=C(O)C(F)(F)F [Compound 46, 10-Aza-5,6-dihydro-6-(3-(4-morpholino)propyl)-2,3,9-trimethoxy-5,11-dioxo-11H-indeno[1,2-c]isoquinoline Trifluoroacetate] | +++ | – | – | – | – | – | – | – | –
5 | – | CC[C@@]1(O)C(=O)OCc2c1cc1n(c2=O)Cc2cc3ccccc3nc2-1 [Compound 1, camptothecin, reference compound] | – | 0.04 µM | 10 nM | 30 nM | 10 nM | 20 nM | 10 nM | – | MGM (mean graph midpoint for growth inhibition) ([1]; Table 2): 0.040 µM; GI50 (HOP-62; Table 2): 10 nM; GI50 (HCT-116; Table 2): 30 nM; GI50 (SF-539): 10 nM; GI50 (UACC-62; Table 2): 10 nM; GI50 (SN12C; Table 2): 20 nM; GI50 (DU-145; Table 2): 10 nM; GI50 (MCF7; Table 2): 13 nM
6 | ++ | COc1cc2c3c(n(CCCn4ccnc4)c(=O)c2cc1OC)-c1ncccc1C3=O [Compound 29, 7-Aza-5,6-dihydro-6-(3-(1H-imidazol-1-yl)propyl)-2,3-dimethoxy-5,11-dioxo-11H-indeno[1,2-c]isoquinoline] | – | – | – | – | – | – | – | – | –
7 | – | COc1ccc2c(n1)C(=O)c1c-2n(CCCN(C)C)c(=O)c2cc(OC)c(OC)cc12.O=C(O)C(F)(F)F [Compound 45, 10-Aza-5,6-dihydro-6-(3-dimethylaminopropyl)-2,3,9-trimethoxy-5,11-dioxo-11H-indeno[1,2-c]isoquinoline Trifluoroacetate] | +++ | – | – | – | – | – | – | – | –
8 | – | COc1cc2c3c(n(C)c(=O)c2cc1OC)-c1cc2c(cc1C3=O)OCO2 [Compound 2, reference compound] | – | 8.51 µM | 2820 nM | 11500 nM | – | 25700 nM | 4790 nM | 1910 nM | MGM (mean graph midpoint for growth inhibition) ([1]; Table 2): 8.5 µM; GI50 (HOP-62; Table 2): 2800 nM; GI50 (HCT-116; Table 2): 11500 nM; GI50 (SF-539): 1700 nM; GI50 (UACC-62; Table 2): 560 nM; GI50 (SN12C; Table 2): 26000 nM; GI50 (DU-145; Table 2): 4800 nM; GI50 (MCF7; Table 2): 1900 nM
9 | – | CN(C)CCCn1c2c(c3ccccc3c1=O)C(=O)c1ccccc1-2 [Compound 33, reference compound] | – | 1.86 µM | 1740 nM | 580 nM | 510 nM | 910 nM | 1320 nM | 550 nM | GI50 (OVCAR-3): 1660 nM
10 | +++ | O=C1c2cccnc2-c2c1c1ccc([N+](=O)[O-])cc1c(=O)n2CCCN1CCOCC1 [Compound 23, 7-Aza-5,6-dihydro-6-(3-morpholinopropyl)-3-nitro-5,11-dioxo-1H-indeno-[1,2-c]isoquinoline Hydrochloride] | – | – | – | – | – | – | – | – | –
